Measurements reported in ChEMBL document CHEMBL5241112, “Insights into the recent progress in the medicinal chemistry of pyranopyrimidine analogs” (RSC Med Chem, 2022).
Converted amounts (≈) assume the structure as drawn. Blank lines part the entries; values can stand above or below the compound they belong to.

How the values were obtained:
[1] = target: NAD-dependent protein deacetylase sirtuin-1 (Homo sapiens, UniProt Q96EB6); assay: Inhibition of recombinant human SIRT1 expressed in Escherichia coli using Fluor de Lys-SIRT1/2 substrate in presence of NAD+ by fluorescence microplate reader analysis
Sequence of NAD-dependent protein deacetylase sirtuin-1 (Q96EB6 whole entry): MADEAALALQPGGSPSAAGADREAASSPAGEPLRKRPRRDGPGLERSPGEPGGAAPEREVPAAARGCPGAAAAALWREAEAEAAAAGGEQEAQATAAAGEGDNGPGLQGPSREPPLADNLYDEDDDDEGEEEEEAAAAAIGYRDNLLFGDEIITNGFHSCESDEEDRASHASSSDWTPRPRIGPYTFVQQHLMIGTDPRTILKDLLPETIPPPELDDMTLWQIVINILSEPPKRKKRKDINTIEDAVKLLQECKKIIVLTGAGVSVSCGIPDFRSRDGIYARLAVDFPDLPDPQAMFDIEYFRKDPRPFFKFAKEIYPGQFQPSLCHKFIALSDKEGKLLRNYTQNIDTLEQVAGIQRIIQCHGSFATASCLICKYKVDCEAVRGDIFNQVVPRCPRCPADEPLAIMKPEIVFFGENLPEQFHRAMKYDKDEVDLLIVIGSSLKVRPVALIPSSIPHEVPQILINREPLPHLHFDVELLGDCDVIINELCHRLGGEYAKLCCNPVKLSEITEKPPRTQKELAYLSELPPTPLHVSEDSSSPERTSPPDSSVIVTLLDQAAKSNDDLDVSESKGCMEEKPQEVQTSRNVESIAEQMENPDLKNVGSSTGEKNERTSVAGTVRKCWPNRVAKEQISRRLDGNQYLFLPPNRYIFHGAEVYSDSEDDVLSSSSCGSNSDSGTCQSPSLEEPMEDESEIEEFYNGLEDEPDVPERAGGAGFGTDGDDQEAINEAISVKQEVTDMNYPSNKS

HCT-116 = assay: Anticancer activity against human HCT-116 cells assessed as reduction in cell viability incubated for 96 hrs by MTT assay; format: functional, cell-based; conditions: HCT-116, 96 h
[2] = target: Poly [ADP-ribose] polymerase 1 (Homo sapiens, UniProt P09874); assay: Inhibition of PARP1 (unknown origin) incubated for 1 hrs by colorimetric analysis
Sequence of Poly [ADP-ribose] polymerase 1 (P09874 whole entry): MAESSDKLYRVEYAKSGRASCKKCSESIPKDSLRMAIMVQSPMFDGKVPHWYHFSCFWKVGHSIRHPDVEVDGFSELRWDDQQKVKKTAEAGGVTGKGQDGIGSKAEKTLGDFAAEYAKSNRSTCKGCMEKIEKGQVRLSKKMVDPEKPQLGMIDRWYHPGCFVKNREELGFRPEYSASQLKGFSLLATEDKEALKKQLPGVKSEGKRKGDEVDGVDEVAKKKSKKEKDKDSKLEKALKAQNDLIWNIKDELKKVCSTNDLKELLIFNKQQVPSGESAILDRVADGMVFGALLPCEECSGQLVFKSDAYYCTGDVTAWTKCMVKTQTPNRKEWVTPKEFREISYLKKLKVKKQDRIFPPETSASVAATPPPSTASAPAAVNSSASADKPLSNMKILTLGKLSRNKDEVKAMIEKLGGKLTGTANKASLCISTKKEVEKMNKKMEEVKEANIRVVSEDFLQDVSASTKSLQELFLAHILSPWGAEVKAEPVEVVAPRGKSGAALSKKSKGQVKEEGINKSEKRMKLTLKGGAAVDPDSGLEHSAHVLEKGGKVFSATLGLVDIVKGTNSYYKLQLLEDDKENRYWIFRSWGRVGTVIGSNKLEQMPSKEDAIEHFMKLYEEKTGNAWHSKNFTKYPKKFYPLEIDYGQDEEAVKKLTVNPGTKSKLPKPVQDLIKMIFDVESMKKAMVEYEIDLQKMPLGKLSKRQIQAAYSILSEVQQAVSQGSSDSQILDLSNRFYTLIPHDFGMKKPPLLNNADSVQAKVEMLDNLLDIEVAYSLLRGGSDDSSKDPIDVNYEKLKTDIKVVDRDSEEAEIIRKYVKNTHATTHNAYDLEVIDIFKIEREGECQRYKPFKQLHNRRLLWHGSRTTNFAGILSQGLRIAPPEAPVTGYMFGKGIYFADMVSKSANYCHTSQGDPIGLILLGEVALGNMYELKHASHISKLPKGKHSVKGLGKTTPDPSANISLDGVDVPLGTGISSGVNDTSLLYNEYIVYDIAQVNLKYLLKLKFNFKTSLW

MCF7 [3] = assay: cells; format: functional, cell-based; conditions: Homo sapiens, MCF7, 96 h
Candida albicans [4] = assay: Antifungal activity against Candida albicans assessed as inhibition of fungal growth at MIC by microdilution method; format: functional
Candida albicans [5] = assay: […] activity against Candida albicans assessed as […] by microdilution method; format: functional
Escherichia coli = assay: Antibacterial activity against Escherichia coli assessed as inhibition of bacterial growth by microdilution method; format: functional
Aspergillus niger [6] = assay: […] activity against Aspergillus niger assessed as […] by microdilution method; format: functional
Caco-2 = assay: Anticancer activity against human Caco-2 cells assessed as reduction in cell viability by MTT assay; format: functional, cell-based
Bacillus pumilus [7] = assay: Antibacterial activity against Bacillus pumilus assessed as minimum bactericidal concentration by microdilution method; format: functional
Enterobacter cloacae [8] = assay: Antibacterial activity against Enterobacter cloacae assessed as inhibition of bacterial growth at MIC by microdilution method; format: functional
Aspergillus niger [9] = assay: Antifungal activity against Aspergillus niger assessed as inhibition of fungal growth at MIC by microdilution method; format: functional
Enterococcus faecalis [10] = assay: Antibacterial activity against […] assessed as inhibition of bacterial growth at MIC by microdilution method; format: functional
Enterococcus faecalis [11] = assay: Antibacterial activity against […] assessed as minimum bactericidal concentration by microdilution method; format: functional
Aspergillus niger [12] = assay: Antifungal activity against Aspergillus niger assessed as inhibition of fungal growth by microdilution method; format: functional
[13] = Cytotoxicity against African green monkey Vero cells assessed as reduction in cell viability by MTT assay; format: toxicity, cell-based; conditions: African green monkey (Chlorocebus sabaeus)
Enterobacter cloacae [14] = assay: Antibacterial activity against Enterobacter cloacae assessed as minimum bactericidal concentration by microdilution method; format: functional
Enterobacter cloacae [15] = assay: Antibacterial activity against Enterobacter cloacae assessed as inhibition of bacterial growth by microdilution method; format: functional
Bacillus pumilus [16] = assay: Antibacterial activity against Bacillus pumilus assessed as inhibition of bacterial growth by microdilution method; format: functional
Candida albicans [17] = assay: Antifungal activity against Candida albicans assessed as inhibition of fungal growth by microdilution method; format: functional
Bacillus pumilus [18] = assay: Antibacterial activity against Bacillus pumilus assessed as inhibition of bacterial growth at MIC by microdilution method; format: functional
Enterococcus faecalis [19] = assay: Antibacterial activity against […] assessed as inhibition of bacterial growth by microdilution method; format: functional
A549 = assay: Anticancer activity against human A549 cells assessed as reduction in cell viability incubated for 24 hrs by MTT assay; format: functional, cell-based; conditions: A549, 24 h
SK-OV-3 = assay: Anticancer activity against human SK-OV-3 cells assessed as reduction in cell viability incubated for 24 hrs by MTT assay; format: functional, cell-based; conditions: SK-OV-3, 24 h
MCF7 [20] = assay: Anticancer activity against human MCF7 cells assessed as reduction in cell viability incubated for 24 hrs by MTT assay; format: functional, cell-based; conditions: MCF7, 24 h
NUGC = assay: Anticancer activity against human NUGC cells assessed as cell growth inhibition incubated for 24 hrs; format: functional, cell-based
HepG2 = assay: Anticancer activity against human HepG2 cells assessed as cell growth inhibition incubated for 24 hrs; format: functional, cell-based; conditions: HepG2, 24 h
WI-38 = assay: Cytotoxicity against human WI-38 cells assessed as lethality incubated for 24 hrs; format: toxicity, cell-based; conditions: wi-38, 24 h
DLD-1 = assay: Anticancer activity against human DLD-1 cells assessed as cell growth inhibition incubated for 24 hrs; format: functional, cell-based; conditions: DLD-1, 24 h
MCF7 [21] = assay: Anticancer activity against human MCF7 cells assessed as cell growth inhibition incubated for 24 hrs; format: functional, cell-based; conditions: MCF7, 24 h
HONE1 cell line = assay: Anticancer activity against human HONE1 cell line assessed as cell growth inhibition incubated for 24 hrs; format: functional, cell-based; conditions: HONE1, 24 h
[22] = Cytotoxicity against human WI-38 cells assessed as cell growth inhibition incubated for 24 hrs; format: toxicity, cell-based

- IC50 [1]: 4200 nM
SMILES: O=C1N=C2Oc3ccccc3CC2C(=O)N1c1ccccc1 (configuration not stated)

- IC50 (HCT-116): 2760 nM
- IC50 [2]: 15.8 nM
- IC50 (MCF7 [3]): 660 nM
SMILES: Nc1cc(-c2ccc([N+](=O)[O-])cc2)nc2c1C(c1cccs1)c1c([nH]c(=O)[nH]c1=O)O2 (configuration not stated)

- MIC (Escherichia coli): 3.91 µg/mL (≈ 7.63 µM)
- IC50 (Caco-2): 65.9 µg/mL (≈ 129 µM)
- MIC (Aspergillus niger [12]): 62.5 µg/mL
- MIC (Enterobacter cloacae [15]): 31.2 µg/mL (≈ 60.9 µM)
- MIC (Bacillus pumilus [16]): 15.6 µg/mL (≈ 30.4 µM)
- MIC (Candida albicans [17]): 31.2 µg/mL
- MIC (Enterococcus faecalis [19]): 7.81 µg/mL (≈ 15.2 µM)
SMILES: COc1ccc(N2C(=O)C3C(c4ccccc4)C(C#N)=C(N)OC3N(c3ccc(OC)cc3)C2=S)cc1 (configuration not stated)
- inhibition (INH) (Candida albicans [4]): 85.5%
- MBC (Candida albicans [5]): 125 µg/mL (≈ 244 µM)
- MBC (Aspergillus niger [6]): 125 µg/mL (≈ 244 µM)
- MBC (Bacillus pumilus [7]): 62.5 µg/mL (≈ 122 µM)
- inhibition (INH) (Enterobacter cloacae [8]): 50.5%
- inhibition (INH) (Aspergillus niger [9]): 88.3%
- inhibition (INH) (Enterococcus faecalis [10]): 78.6%
- MBC (Enterococcus faecalis [11]): 31.3 µg/mL (≈ 61.1 µM)
- IC50 [13]: 138 µg/mL (≈ 269 µM)
- MBC (Enterobacter cloacae [14]): 15.6 µg/mL (≈ 30.4 µM)
- inhibition (INH) (Bacillus pumilus [18]): 51.3%

- IC50 (A549): 690 nM
- IC50 (SK-OV-3): 96500 nM
- IC50 (MCF7 [20]): 71400 nM
SMILES: CCOC(=O)C1=C(C)Oc2nc(C)n(Cc3cn(-c4ccc([N+](=O)[O-])cc4)nn3)c(=O)c2C1c1ccccc1 (configuration not stated)

SMILES: N#CC1=C(N)C2C(=NC(NNc3ccccc3)=NC2c2ccc(Cl)cc2)OC1=O (configuration not stated)
- IC50 (NUGC): 55 nM
- IC50 (HepG2): 523 nM
- LC50 (WI-38): 18.38 µg/mL (≈ 45.2 µM)
- IC50 (DLD-1): 146 nM
- IC50 (MCF7 [21]): 285 nM
- IC50 (HONE1 cell line): 536 nM
- IC50 at 24 h [22]: 222 nM
